Reference: patent publication US9987256B2, “CFTR corrector for the treatment of genetic disorders affecting striated muscle” (UNIVERSITA' DEGLI STUDI DI PADOVA, priority 2012, dated 2018)

Experiments:
R164H mutant of SERCA1 = biological target: T1, R164H mutant of SERCA1 (Bos taurus, UniProt Q0VCY0, R164H); experiment: Western blot rescue of R164H mutant of SERCA1 in HEK293 cells; type: cell-based, bovine; details: HEK293, 24 hours, relative to wild type
T1 construct: expressed in transfected cells; host or cells: HEK 293
Method: In FIG. 3 are reported the results obtained with HEK 293 cells expressing the R164H mutant of SERCA1 treated for 24 hours with either Compound C 5 μM, Compound B 10 μM, Compound E 10 μM, compound F 10 μM, Compound A 2 μM, compound D 10 μM, MG132 (proteasome inhibitor) 10 μM, used as positive control or the vehicle DMSO at 1‰ concentration, used as negative control. At the end of treatments, cells were lysed and total protein resolved by SDS-PAGE. Western blotting analysis has been performed by using SERCA1 specific antibody and β-actin specific antibody, to normalize loaded proteins. In the upper panel of FIG. 3 is reported a representative Western blotting experiment. The expression of SERCA1 in different samples has been determined by densitometric analysis and indicated as percentage of SERCA 1 content present in wild type expressing cells treated with DMSO.
In FIG. 10 is reported the content of SERCA1 protein present in HEK 293 cells transfected with the R164H mutant of SERCA1 and treated for 24 hours with either Compound H 15 μM, Compound I 10 μM, compound Q 10 μM, Compound R 5 μM, Compound S 15 μM, Compound T 15 μM or the vehicle DMSO at 1‰ concentration, used as negative control. Cells expressing the wild type form of SERCA1 have also been used for comparison. At the end of treatments, cells were lysed and total protein resolved by SDS-PAGE. Western blotting analysis has been performed by using SERCA1 specific antibody and β-actin specific antibody, to normalize loaded proteins. The expression of SERCA1 in different samples has been determined by densitometric analysis and indicated as percentage of SERCA 1 content present in wild type expressing cells. The graph of FIG. 10 reports the average values (+/− standard error) of at least three independent experiments.

[1] = biological target: T2, D97G mutant of alpha-sarcoglycan (Homo sapiens, UniProt Q16586, D97G); experiment: Western blot rescue of D97G mutant of alpha-sarcoglycan in HEK293 cell model; type: cell-based; details: FIG. 7; HEK293, 24 hours; E 10 μM, H 15 μM, I 10 μM, Q 10 μM, F 10 μM, R 5 μM, S 15 μM, T 15 μM, A 2 μM; relative to wild type
T2 construct: expressed in transfected cells; host or cells: HEK293
T2 sequence (Q16586 24-387 D97G): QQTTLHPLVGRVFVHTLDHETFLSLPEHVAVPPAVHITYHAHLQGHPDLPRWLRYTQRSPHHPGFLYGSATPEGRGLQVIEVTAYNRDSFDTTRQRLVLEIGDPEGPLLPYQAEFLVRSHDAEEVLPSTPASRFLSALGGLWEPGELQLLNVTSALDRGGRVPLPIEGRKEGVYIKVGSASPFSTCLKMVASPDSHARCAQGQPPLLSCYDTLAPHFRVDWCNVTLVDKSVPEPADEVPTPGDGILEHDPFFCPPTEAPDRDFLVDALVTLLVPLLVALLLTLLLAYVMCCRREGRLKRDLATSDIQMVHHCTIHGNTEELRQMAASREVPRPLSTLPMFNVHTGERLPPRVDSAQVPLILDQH
Method: HEK293 cells expressing different α-SG mutants have been treated with the Compounds A, B, C, D, E, F, H, I, Q, R, S and T according to protocols developed in CF studies [Loo and Clarke 2011; Becq et al 2011, Pedemonte et al 2005; Wang et al 2006]. Concentration and time-dependent recovery of treated mutants have been evaluated by Western blotting. The proteasome inhibitor MG132, at the concentration of 10 μM, or DMSO at 1‰ concentration, have been used as positive and negative control, respectively.
In FIG. 7 is shown the content of α-sarcoglycan protein present in HEK cells transfected with the D97G mutant of α-SG treated for 24 hours with either Compound E 10 μM, Compound H 15 μM, Compound I 10 μM, Compound Q 10 μM, Compound F 10 μM, Compound R 5 μM, Compound S 15 μM, Compound T 15 μM, Compound A 2 μM, or DMSO at 1‰ concentration, used as negative control, are shown. Cells expressing the wild type form of α-sarcoglycan have been used for comparison. At the end of treatments, cells were lysed and total proteins resolved by SDS-PAGE. Western blotting has been performed by using α-SG specific antibody and β-actin specific antibody, used to normalize loaded proteins. The expression of α-SG in different samples has been determined by densitometric analysis of western blotting experiments and indicated as percentage of the protein present in cells expressing the wild type form of α-sarcoglycan. […] The compounds tested induce the recovery of the D97G mutant that in some cases reached the level present in HEK cells expressing the wild type protein.

[2] = FIG. 10, H 15 μM, I 10 μM, Q 10 μM, R 5 μM, S 15 μM, T 15 μM
[3] = FIG. 3, C 5 μM, B 10 μM, E 10 μM, F 10 μM, A 2 μM, D 10 μM

T1 sequence (Q0VCY0 whole entry R164H): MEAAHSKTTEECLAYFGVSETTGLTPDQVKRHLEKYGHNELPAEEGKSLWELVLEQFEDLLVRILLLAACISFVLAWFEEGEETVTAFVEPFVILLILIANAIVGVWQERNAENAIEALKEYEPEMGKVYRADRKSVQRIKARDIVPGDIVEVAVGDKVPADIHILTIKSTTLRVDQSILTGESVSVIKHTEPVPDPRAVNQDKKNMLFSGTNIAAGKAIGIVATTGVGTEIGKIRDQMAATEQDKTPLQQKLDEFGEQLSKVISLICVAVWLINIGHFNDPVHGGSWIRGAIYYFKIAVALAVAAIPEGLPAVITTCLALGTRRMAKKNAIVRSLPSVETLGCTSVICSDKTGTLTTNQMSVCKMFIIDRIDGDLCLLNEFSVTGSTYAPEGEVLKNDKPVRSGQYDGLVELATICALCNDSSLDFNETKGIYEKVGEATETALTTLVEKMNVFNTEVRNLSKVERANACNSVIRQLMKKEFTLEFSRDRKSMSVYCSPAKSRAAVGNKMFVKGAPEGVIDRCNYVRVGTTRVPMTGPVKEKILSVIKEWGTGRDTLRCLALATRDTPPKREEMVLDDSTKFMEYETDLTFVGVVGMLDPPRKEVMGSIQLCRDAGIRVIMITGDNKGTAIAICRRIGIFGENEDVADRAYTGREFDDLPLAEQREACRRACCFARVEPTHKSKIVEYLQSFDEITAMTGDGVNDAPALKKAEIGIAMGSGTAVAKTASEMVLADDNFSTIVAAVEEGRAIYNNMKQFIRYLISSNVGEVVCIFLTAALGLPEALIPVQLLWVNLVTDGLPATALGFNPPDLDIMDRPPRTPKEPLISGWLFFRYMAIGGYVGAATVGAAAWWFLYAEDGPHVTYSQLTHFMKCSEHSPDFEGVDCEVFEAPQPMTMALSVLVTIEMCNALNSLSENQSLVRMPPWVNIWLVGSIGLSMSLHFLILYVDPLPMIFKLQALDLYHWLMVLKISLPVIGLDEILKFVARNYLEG

SERCA1 protein level (western blot, densitometry), rescue of R164H mutant (R164H mutant of SERCA1; [2]) | alpha-sarcoglycan protein level (western blot, densitometry), rescue of D97G mutant [1] | SERCA1 protein level (western blot, densitometry), rescue of R164H mutant (R164H mutant of SERCA1; [3]) | SMILES
promote the rescue | promote the rescue | – | Cc1cc(Nc2ccc(Br)cc2)nc2ccccc12 [Compound I, N-(4-bromophenyl)-4-methylquinolin-2-amine]
promote the rescue | promote the rescue | – | Cc1cc(C)c2c(C)cc(Nc3ccccc3)nc2c1 [Compound H, 4,5,7-trimethyl-N-phenylquinolin-2-amine]
promote the rescue | promote the rescue | – | C=Cc1ccc(-c2csc(Nc3ccccc3)n2)cc1 [Compound S, N-phenyl-4-(4-vinylphenyl)thiazol-2-amine]
– | promote the rescue | promote the rescue | COc1ccc(Cl)cc1Nc1nc(-c2sc(NC(=O)C(C)(C)C)nc2C)cs1 [Compound A, N-(2-(5-chloro-2-methoxyphenylamino)-4′-methyl-4,5′-bithiazol-2′-yl)pivalamide]
– | promote the rescue | promote the rescue | O=S(=O)(c1ccc(Cl)cc1)N1CCN(c2ccnc3cc(Cl)ccc23)CC1 [Compound F, 7-chloro-4-(4-(4-chlorophenylsulfonyl)piperazin-1-yl)quinoline]
– | promote the rescue | promote the rescue | COc1ccc(Cl)cc1Nc1nc(-c2sc(NC(=O)c3ccccc3)nc2C)cs1 [Compound E, N-[2-(5-Chloro-2-methoxy-phenylamino)-4′-methyl-[4,5′]bithiazolyl-2′-yl]-benzamide]
promote the rescue | promote the rescue | – | CC(=O)c1cccc(Nc2nc(-c3sc(NC(=O)c4ccccc4)nc3C)cs2)c1 [Compound Q, N-(2-(3-acetylphenylamino)-4′-methyl-4,5′-bithiazol-2′-yl)-benzamide]
promote the rescue | promote the rescue | – | COc1ccc2nc(Nc3nc(=O)c(C)c(C)[nH]3)nc(C)c2c1 [Compound T, 2-(6-methoxy-4-methylquinazolin-2-ylamino)-5,6-dimethylpyrimidin-4(1H)-one]

SMILES | SERCA1 protein level (western blot, densitometry), rescue of R164H mutant (R164H mutant of SERCA1; [2]) | alpha-sarcoglycan protein level (western blot, densitometry), rescue of D97G mutant [1] | SERCA1 protein level (western blot, densitometry), rescue of R164H mutant (R164H mutant of SERCA1; [3])
COc1ccccc1Nc1nc(-c2sc(NC(=O)c3ccccc3)nc2C)cs1 [Compound R, N-(2-(2-methoxyphenylamino)-4′-methyl-4,5′-bithiazol-2′-yl)-benzamide] | promote the rescue | promote the rescue | –
